Experimental findings from patent US7408024B2, “Somatostatin antagonists” (The Administrators of the Tulane Educational Fund, priority 2001, dated 2008) are described below.

The target in one assay is T1, hsst2 (Homo sapiens, UniProt P30874).
T1 construct: each containing the entire coding region of the full-length receptors; expressed in transfected cells
As to the kind of experiment: Radioligand binding, cloned human sst2 receptor (CHO-K1 membranes). The note with it: [125I]MK-678, CHO-K1 cell membranes; single values = one binding experiment; read-out: K1 ± SEM hsst2. An excerpt:
(§1) The genomic clones containing the human somatostatin receptors (hsstr1-5) (Yamada, Y., et al. al., Proc. Natl. Acad. Sci. USA. 1992, 89, 251-255; Yasuda, K., et al., J. Biol. Chem. 1992, 267, 20422-20428; Yamada, Y., et al., Mol. Pharmacol. 1992, 42, 2136-2142; Rohrer, L., et al., Proc. Natl. Acad. Sci. USA. 1993, 90, 4196-4200.), were kindly provided by Dr. Graeme I. Bell (University of Chicago). The hsstr1, hsstr2, hsstr3, hsstr4 and hsstr5 cDNAs were isolated as a 1.5-kb PstI-XmnI fragment, 1.7-kb BamHI-HindIII fragment, 2.0-kb NcoI-HindIII fragment, 1.4-kb NheI-NdeI fragment, and a 1.2-kb HindIII-XbaI fragment, respectively, each containing the entire coding region of the full-length receptors. These fragments were independently subdloned into the corresponding restriction endonuclease sites in the mammalian expression vector pCMV5, downstream from the human cytomegalovirus (CMV) promoter, to produce the expression plasmids pCMV5/hsstr1, pCMV5/hsstr2, pCMV5/hsstr3, pCMV5/hsstr4 and pCMV5/hsstr5. For transfection into CHO-K1 cells, a plasmid, pRSV-neo (American Type Culture Collection, Rockville, Md.), carrying the neomycin mammalian cell selectable marker was added.
(§2) Transfections were performed by the calcium phosphate method. CHO-K1 cells are maintained in α-minimum essential medium (α-MEM; Gibco) supplemented with 10% fetal calf serum and transfected with each of the expression plasmids using calcium phosphate precipitation. Clones that had inherited the expression plasmid were selected in α-MEM supplemented with 500 μg mL^−1 of geneticin (G418; Gibco). Independent CHO-K1 clones were picked by glass-ring cloning and expanded in culture in the selective media. Membranes were prepared from the isolated clones and hsstr expression was initially assessed for binding with [^125I]Tyr^11-SRIF and [^125]IMK-678 (for sstr2).
(§3) Cell membranes of the 5 receptor types were obtained from homogenates (Polytron setting 6, 15 sec) of the corresponding CHO-K1 cells, in ice-cold Tris-HCl (50 mM) and centrifuged (39000 g, 10 min×2), with an intermediate resuspension in fresh buffer. The final pellets are resuspended in Tris-HCl (10 mM) for assay. Aliquots of the membranes are incubated (30 min at 37° C.) with 0.05 nM [^125I]Tyr^11-SRIF (types 1,3,4,5) or [^125I]MK-678 (type 2) in 50 mM HEPES (pH 7.4) containing BSA (10 mg mL^−1); MgCl2 (5 mM), Trasylol (200 kIU mL^−1), bacitracin (0.02 mg mL^−1), and phenylmethanesulfonyl fluoride (0.02 mg mL^−1). The final assay volume is 0.3 mL and incubations are terminated by rapid filtration through GF/C filters pre-soaked in 0.3% poly(ethylenimine) using a Brandel rapid filtration module. Each tube and filter is then washed with aliquots of cold buffer (3×5 mL).
(§4) Specific binding is. defined as the total radioligand bound minus that bound in the presence of 1.0 μM SRIF.

In the next assay the target is T2, hsst4 (Homo sapiens, UniProt P31391).
T2 construct: each containing the entire coding region of the full-length receptors; expressed in transfected cells
T2 sequence (P31391 whole entry): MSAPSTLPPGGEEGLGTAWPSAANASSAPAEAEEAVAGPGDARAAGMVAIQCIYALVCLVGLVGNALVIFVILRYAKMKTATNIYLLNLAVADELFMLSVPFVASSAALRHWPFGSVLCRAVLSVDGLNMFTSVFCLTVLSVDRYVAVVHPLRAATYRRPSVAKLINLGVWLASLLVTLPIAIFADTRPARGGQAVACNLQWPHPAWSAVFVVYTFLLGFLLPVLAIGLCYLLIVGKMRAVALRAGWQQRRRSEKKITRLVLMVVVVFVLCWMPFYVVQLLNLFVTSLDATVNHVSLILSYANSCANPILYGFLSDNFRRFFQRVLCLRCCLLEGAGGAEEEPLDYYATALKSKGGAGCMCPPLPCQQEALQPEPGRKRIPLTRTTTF
As to the kind of experiment: Radioligand binding, cloned human sst4 receptor (CHO-K1 membranes). Conditions: [125I]Tyr11-SRIF, CHO-K1 cell membranes; single values = one binding experiment; read-out: K1 ± SEM hsst4.
Source text: as §1, §2, §3, §4

Another assay has as its target T3, hsst3 (Homo sapiens, UniProt P32745).
T3 construct: each containing the entire coding region of the full-length receptors; expressed in transfected cells
As to the kind of experiment: Radioligand binding, cloned human sst3 receptor (CHO-K1 membranes). The note with it: [125I]Tyr11-SRIF, CHO-K1 cell membranes; single values = one binding experiment; read-out: K1 ± SEM hsst3.
Source text: as §1, §2, §3, §4

In the next assay the target is T4, hsst1 (Homo sapiens, UniProt P30872).
T4 construct: each containing the entire coding region of the full-length receptors; expressed in transfected cells
T4 sequence (P30872 whole entry): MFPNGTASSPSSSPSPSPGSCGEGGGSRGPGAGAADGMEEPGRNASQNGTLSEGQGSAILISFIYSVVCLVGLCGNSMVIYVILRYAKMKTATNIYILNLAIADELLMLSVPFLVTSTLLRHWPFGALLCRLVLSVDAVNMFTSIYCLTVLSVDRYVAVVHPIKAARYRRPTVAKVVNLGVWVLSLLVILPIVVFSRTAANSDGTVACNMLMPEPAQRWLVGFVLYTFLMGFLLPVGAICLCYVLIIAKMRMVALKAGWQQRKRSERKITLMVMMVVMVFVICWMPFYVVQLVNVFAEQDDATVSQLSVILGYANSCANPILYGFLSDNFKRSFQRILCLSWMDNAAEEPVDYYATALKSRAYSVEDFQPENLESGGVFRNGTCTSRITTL
Put plainly: Radioligand binding, cloned human sst1 receptor (CHO-K1 membranes). The note with it: [125I]Tyr11-SRIF, CHO-K1 cell membranes; single values = one binding experiment; read-out: K1 ± SEM hsst1.
Source text: as §1, §2, §3, §4

In a further assay the target is T5, hsst5 (Homo sapiens, UniProt P35346).
T5 construct: each containing the entire coding region of the full-length receptors; expressed in transfected cells
T5 sequence (P35346 whole entry): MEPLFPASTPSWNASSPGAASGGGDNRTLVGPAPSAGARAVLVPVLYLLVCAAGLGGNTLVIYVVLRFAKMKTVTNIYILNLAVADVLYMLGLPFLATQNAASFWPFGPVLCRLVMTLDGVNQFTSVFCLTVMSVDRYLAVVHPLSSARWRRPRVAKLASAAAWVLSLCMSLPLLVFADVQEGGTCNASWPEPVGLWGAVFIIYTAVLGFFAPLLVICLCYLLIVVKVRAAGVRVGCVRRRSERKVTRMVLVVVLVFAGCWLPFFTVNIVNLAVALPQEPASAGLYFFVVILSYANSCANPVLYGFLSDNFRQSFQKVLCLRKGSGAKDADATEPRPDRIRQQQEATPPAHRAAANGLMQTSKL
Put plainly: Radioligand binding, cloned human sst5 receptor (CHO-K1 membranes). The note with it: [125I]Tyr11-SRIF, CHO-K1 cell membranes; single values = one binding experiment; read-out: K1 ± SEM hsst5.
Source text: as §1, §2, §3, §4

The subject of assay [1] is SRIF inhibition of GH release in rat anterior pituitary cells. In kind it is cell-based. As for the experimental part:
Anterior pituitaries from adult male rats were collected and dispersed by a previously described trypsin/DNase method. (Murphy, W. A.; Taylor, J.; Moreau, J.-P. and Coy, D. […] Sigma) and nystatin (10,000 U mL^−1; Gibco). The cells were randomly plated at a density of approximately 200,000 cells/well (Costar cluster 24; Rochester Scientific Co., Rochester, N.Y.). The plated cells were maintained in the above Dulbecco's medium in a humidified atmosphere of 95% air/5% CO2 at 37° C. for 4-6 days. In preparation for a hormone challenge, the cells were washed with medium 199 (Gibco, 3×1 mL). […] Sigma Chemical Co.). […] After 3 h incubation in an air/carbon dioxide atmosphere (95/5%, 3 h at 37° C.), the medium was removed and stored at −20° C. until assayed for hormone content. Growth hormone in media was measured by a standard double antibody RIA using components generously supplied by Dr. A. F. Parlow at the National Hormone and Pituitary Program (NHHP) Torrance, Calif.

Where a SMILES comes first, the peptide text is derived from it. Bridges are numbered along the chain shown (N, C = ends). [ ]: non-standard residue; d: D form. Phe(4-Cl) = N[C@@H](Cc1ccc(Cl)cc1)C(=O)O; dNMeW = CN[C@H](Cc1c[nH]c2ccccc12)C(=O)O; 2Nal = N[C@@H](Cc1ccc2ccccc2c1)C(=O)O; 3Pal = N[C@@H](Cc1cccnc1)C(=O)O; NMeK = CN[C@@H](CCCCN)C(=O)O

What is called IC50 is the concentration that inhibits the measured activity by half. The low end stands for higher potency, the high end for lower potency.

T3 sequence (P32745 whole entry): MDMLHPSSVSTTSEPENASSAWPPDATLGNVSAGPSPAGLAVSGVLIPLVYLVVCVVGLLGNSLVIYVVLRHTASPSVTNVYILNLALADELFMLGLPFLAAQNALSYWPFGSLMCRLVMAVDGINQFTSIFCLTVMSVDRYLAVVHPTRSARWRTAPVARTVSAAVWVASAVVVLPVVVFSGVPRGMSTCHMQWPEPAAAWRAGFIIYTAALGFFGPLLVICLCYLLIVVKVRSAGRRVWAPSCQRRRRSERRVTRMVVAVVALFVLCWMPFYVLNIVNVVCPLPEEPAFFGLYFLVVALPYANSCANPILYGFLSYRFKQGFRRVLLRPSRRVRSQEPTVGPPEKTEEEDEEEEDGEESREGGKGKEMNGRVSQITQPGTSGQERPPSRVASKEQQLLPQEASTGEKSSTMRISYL
T1 sequence (P30874 whole entry): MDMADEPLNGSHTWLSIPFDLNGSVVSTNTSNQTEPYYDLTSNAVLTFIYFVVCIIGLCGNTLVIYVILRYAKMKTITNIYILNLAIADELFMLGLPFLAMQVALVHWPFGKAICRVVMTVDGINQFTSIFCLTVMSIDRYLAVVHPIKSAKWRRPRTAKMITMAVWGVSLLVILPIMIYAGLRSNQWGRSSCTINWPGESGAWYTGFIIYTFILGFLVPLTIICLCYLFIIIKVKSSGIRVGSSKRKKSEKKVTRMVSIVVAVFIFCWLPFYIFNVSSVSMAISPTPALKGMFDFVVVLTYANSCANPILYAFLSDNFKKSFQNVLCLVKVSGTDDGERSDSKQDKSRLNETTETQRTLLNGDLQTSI

For the compound `C[C@@H](O)[C@@H]1NC(=O)[C@H](CCCCN)N(C)C(=O)[C@@H](Cc2c[nH]c3ccccc23)N(C)C(=O)[C@H](Cc2cccnc2)NC(=O)[C@H](NC(=O)[C@@H](N)Cc2ccc(Cl)cc2)CSSC[C@@H](C(=O)N[C@@H](Cc2ccc3ccccc3c2)C(N)=O)NC1=O` [Peptide 11, Cpa-cyclo(DCys-3-Pal-NMeDTrp-NMeLys-Thr-Cys)-2-Nal-NH2] (H-[Phe(4-Cl)][dC][3Pal][dNMeW][NMeK]TC[2Nal]-NH2; disulfide 2-7), the Ki is 9.33 ± 0.62 nM on hsst2; 1000 nM on hsst4; 140 ± 10.4 nM at hsst3; 1000 nM at hsst1; 112 ± 19 nM on hsst5. The compound also returned an IC50 in assay [1] of 2.5 ± 0.2 nM.

For `CN[C@@H](Cc1ccc(Cl)cc1)C(=O)N[C@@H]1CSSC[C@@H](C(=O)N[C@@H](Cc2ccc3ccccc3c2)C(N)=O)NC(=O)[C@H]([C@@H](C)O)NC(=O)[C@H](CCCCN)NC(=O)[C@@H](Cc2c[nH]c3ccccc23)NC(=O)[C@H](Cc2cccnc2)NC1=O` [Peptide 1, NmeCpa-cyclo(DCys-3-Pal-DTrp-Lys-Thr-Cys)-2-Nal-NH2], the Ki at hsst2 came out at 36 ± 7.6 nM; at hsst4 it was 1000 nM; at hsst3, 330 ± 126 nM; on hsst1, 1000 nM; at hsst5, 40.1 ± 18.8 nM. Besides, the IC50 in assay [1] turned out to be 7.8 ± 2.7 nM.

For the compound `C[C@@H](O)[C@@H]1NC(=O)[C@H](CCCCN)N(C)C(=O)[C@@H](Cc2c[nH]c3ccccc23)NC(=O)[C@H](Cc2ccc(O)cc2)NC(=O)[C@H](NC(=O)[C@@H](N)Cc2ccc(Cl)cc2)CSSC[C@@H](C(=O)N[C@@H](Cc2ccc3ccccc3c2)C(N)=O)NC1=O` [Peptide 12, Cpa-cyclo(DCys-Tyr-DTrp-NMeLys-Thr-Cys)-2-Nal-NH2] (H-[Phe(4-Cl)][dC]Y[dW][NMeK]TC[2Nal]-NH2; disulfide 2-7), the Ki on hsst2 worked out at 5.51 ± 1.85 nM; on hsst4, 1000 nM; at hsst3 it was 115 ± 16.9 nM; at hsst1 it was 1000 nM. The compound also displayed an IC50 in assay [1] of 0.53 ± 0.17 nM.
